One assay concerns GP2D (KRAS G12D). In words: Cell proliferation assay (CellTiter-Glo, 72 hours), GP2D. Type of assay: cell-based. The following applies: GP2d, 72 h, 384-well, CellTiter-Glo 2.0. Here is the method: (§1) Two thousand KRAS mutant cells per well were seeded in 384-well white plate and then treated with indicated compounds for 72 hours at 37° C. and 5% CO2. Cell proliferation was measured using CellTiter-Glo 2.0 luciferase-based ATP detection assay (Promega, Madison, WI) following the manufacturer's protocol. IC50 values were determined using Prism software (GraphPad Software, San Diego, CA).
For orientation: ATP-based viability assays read luminescence as a measure of living cells.

Another assay relates to SW620 (KRAS G12V). In words: Cell proliferation assay (CellTiter-Glo, 72 hours), SW620. In kind it is cell-based. The settings on record: Homo sapiens, SW-620, 72 h, 384-well, CellTiter-Glo 2.0. Here is the method:
as §1

A further assay has as its system AGS (G12D). Nature of the assay: Cell proliferation assay (CellTiter-Glo, 72 hours), AGS. The following applies: 72 h, 384-well, CellTiter-Glo 2.0. In kind it is cell-based. Here is the method: as §1
For the next assay, the target named is KRAS G12D (Homo sapiens, UniProt P01116, G12D). In words: biochemical.
Sequence of KRAS G12D (P01116 1-188 isoform P01116-2 G12D): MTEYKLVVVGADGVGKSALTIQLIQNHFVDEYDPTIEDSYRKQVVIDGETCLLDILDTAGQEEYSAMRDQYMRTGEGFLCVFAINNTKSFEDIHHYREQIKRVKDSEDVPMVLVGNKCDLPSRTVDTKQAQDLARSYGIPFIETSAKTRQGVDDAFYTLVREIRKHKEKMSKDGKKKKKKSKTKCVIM
A further assay concerns the target KRAS G12V (Homo sapiens, UniProt P01116, G12V). Nature of the assay: biochemical.

Some results are limits rather than exact numbers.

Sequence of KRAS G12V (P01116 1-188 isoform P01116-2 G12V): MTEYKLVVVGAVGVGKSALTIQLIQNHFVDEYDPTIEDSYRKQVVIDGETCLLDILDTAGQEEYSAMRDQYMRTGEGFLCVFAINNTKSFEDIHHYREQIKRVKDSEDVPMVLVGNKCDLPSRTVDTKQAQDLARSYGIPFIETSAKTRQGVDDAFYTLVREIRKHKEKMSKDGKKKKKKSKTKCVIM

In the case of `C#Cc1c(F)ccc2cc(O)cc(-c3nc4c5c(nc(OC[C@@]67CCCN6C[C@H](F)C7)nc5c3F)N(Cc3ccccc3)[C@@H](C)CO4)c12` [Example 74, 4-[(9S)-10-benzyl-4-fluoro-2-{[(2R,7aS)-2-fluorotetrahydro-1H-pyrrolizin-7a(5H)-yl]methoxy}-9-methyl-9,10-dihydro-8H-7-oxa-1,3,6,10-tetraazacyclohepta[1,2,3-de]naphthalen-5-yl]-5-ethynyl-6-fluoronaphthalen-2-ol], the IC50 worked out at 0.48 µM in the assay with GP2D (KRAS G12D); 0.349 µM with SW620 (KRAS G12V); 1.48 µM with AGS (G12D); 0.004 µM on KRAS G12D; 0.00281 µM on KRAS G12V.
`CCc1c(F)ccc2cc(O)cc(-c3nc4c5c(nc(OC[C@@]67CCCN6C[C@H](F)C7)nc5c3F)N3CCCC[C@H]3C(C)O4)c12` (stereo partly drawn) [Example 75, 5-ethyl-6-fluoro-4-((5aS)-1-fluoro-11-(((2R,7aS)-2-fluorotetrahydro-1H-pyrrolizin-7a(5H)-yl)methoxy)-5-methyl-5,5a,6,7,8,9-hexahydro-4-oxa-3,9a, 10,12-tetraazabenzo[4,5]cyclohepta[1,2,3-de]naphthalen-2-yl)naphthalen-2-ol]: the IC50 in the assay on GP2D (KRAS G12D) was 0.349 µM; in the assay with SW620 (KRAS G12V), 0.702 µM; with AGS (G12D) it was 1.62 µM; at KRAS G12D, 0.00176 µM; against KRAS G12V, 0.0016 µM.
The corresponding values for `Fc1c(-c2c(Cl)ccc3[nH]ncc23)nc2c3c(nc(OC[C@@]45CCCN4C[C@H](F)C5)nc13)N1CCCC[C@H]1CO2` [Example 78, (7S)-12-(5-chloro-1H-indazol-4-yl)-13-fluoro-16-[[(2R,8S)-2-fluoro-1,2,3,5,6,7-hexahydropyrrolizin-8-yl]methoxy]-9-oxa-2,11,15,17-tetrazatetracyclo [8.7.1.02,7.014,18]octadeca-1 (17),10 (18),11,13,15-pentaene] are greater than 3 µM, greater than 3 µM, greater than 3 µM, 0.0402 µM and 0.0519 µM.
Take `C#Cc1c(F)ccc2cc(O)cc(-c3nc4c5c(nc(OCC67CCCN6C/C(=C/F)C7)nc5c3F)N3CCCC[C@H]3CO4)c12` (stereo partly drawn) [Example 79, 5-ethynyl-6-fluoro-4-[(8aS)-4-fluoro-2-{[(2E)-2-(fluoromethylidene)tetrahydro-1H-pyrrolizin-7a(5H)-yl]methoxy}-8,8a,9,10,11,12-hexahydro-7-oxa-1,3,6,12a-tetraazabenzo[4,5]cyclohepta[1,2,3-de]naphthalen-5-yl]naphthalen-2-ol]: the IC50 with GP2D (KRAS G12D) was 0.00226 µM; in the assay on SW620 (KRAS G12V), 0.0112 µM; with AGS (G12D), 0.00333 µM; at KRAS G12D it was 0.00165 µM; on KRAS G12V it was 0.00169 µM.
As for `C#Cc1c(F)ccc2cc(O)cc(-c3nc4c5c(nc(OC[C@@]67CCCN6C[C@H](F)C7)nc5c3F)NCCO4)c12` [Example 82, 5-ethynyl-6-fluoro-4-(4-fluoro-2-{[(2R,7aS)-2-fluorotetrahydro-1H-pyrrolizin-7a(5H)-yl]methoxy}-9,10-dihydro-8H-7-oxa-1,3,6,10-tetraazacyclohepta[1,2,3-de]naphthalen-5-yl)naphthalen-2-ol], the IC50 in the assay on GP2D (KRAS G12D) is 0.471 µM; with SW620 (KRAS G12V), greater than 3 µM; in the assay on AGS (G12D) it was 1.44 µM; against KRAS G12D, 0.00264 µM; against KRAS G12V, 0.00279 µM.
As for `N#Cc1c(N)sc2c(F)ccc(-c3nc4c5c(nc(OC[C@@]67CCCN6C[C@H](F)C7)nc5c3F)N3CCCC[C@H]3CO4)c12` [Example 85, 2-amino-7-fluoro-4-[(8aS)-4-fluoro-2-{[(2R,7aS)-2-fluorotetrahydro-1H-pyrrolizin-7a(5H)-yl]methoxy}-8,8a,9,10,11,12-hexahydro-7-oxa-1,3,6,12a-tetraazabenzo[4,5]cyclohepta[1,2,3-de]naphthalen-5-yl]-1-benzothiophene-3-carbonitrile], the IC50 was found to be 0.143 µM in the assay on GP2D (KRAS G12D); 0.82 µM in the assay on SW620 (KRAS G12V); 0.631 µM in the assay on AGS (G12D); 0.00235 µM against KRAS G12D; 0.00217 µM against KRAS G12V.
Consider `C#Cc1c(F)ccc2cc(F)cc(-c3nc4c5c(nc(OC[C@@]67CCCN6C[C@H](F)C7)nc5c3F)N3CCCC[C@H]3CO4)c12` [Example 89, (7S)-12-(8-ethynyl-3,7-difluoro-1-naphthyl)-13-fluoro-16-[[(2R,8S)-2-fluoro-1,2,3,5,6,7-hexahydropyrrolizin-8-yl]methoxy]-9-oxa-2,11,15,17-tetrazatetracyclo[8.7.1.02,7.014,18]octadeca-1 (17),10 (18),11,13,15-pentaene], for which the IC50 in the assay on GP2D (KRAS G12D) is 1.17 µM; in the assay on SW620 (KRAS G12V), greater than 3 µM; in the assay on AGS (G12D), greater than 3 µM; against KRAS G12D it was 0.00393 µM; against KRAS G12V it was 0.0042 µM.
On to `C#Cc1c(F)ccc2cc(O)cc(-c3nc4c5c(nc(OC[C@@]67CCCN6C[C@H](F)C7)nc5c3F)N(C)C3(CC3)CO4)c12` [Example 93], for which the IC50 with GP2D (KRAS G12D) was 0.14 µM; with SW620 (KRAS G12V) it was 0.981 µM; in the assay with AGS (G12D), 0.56 µM; against KRAS G12D it was 0.00199 µM; against KRAS G12V it was 0.00155 µM.
For the compound `C#Cc1c(F)ccc2cc(O)cc(-c3nc4c5c(nc(OC[C@@]67CCCN6C[C@H](F)C7)nc5c3F)N(C)[C@@H](CC)CO4)c12` [Example 96, 4-[(9S)-9-ethyl-4-fluoro-2-{[(2R,7aS)-2-fluorotetrahydro-1H-pyrrolizin-7a(5H)-yl]methoxy}-10-methyl-9,10-dihydro-8H-7-oxa-1,3,6,10-tetraazacyclohepta[1,2,3-de]naphthalen-5-yl]-5-ethynyl-6-fluoronaphthalen-2-ol], the IC50 with GP2D (KRAS G12D) is 0.0168 µM; in the assay with SW620 (KRAS G12V), 0.0926 µM; in the assay with AGS (G12D), 0.0829 µM; at KRAS G12D, 0.00239 µM; against KRAS G12V, 0.00246 µM.
Take `CCc1c(F)ccc2cc(O)cc(-c3nc4c5c(nc(OC[C@@]67CCCN6C[C@H](F)C7)nc5c3F)N(C)[C@@H](CC)CO4)c12` [Example 99]: the IC50 in the assay on GP2D (KRAS G12D) came out at 0.0224 µM; in the assay with SW620 (KRAS G12V), 0.0968 µM; in the assay with AGS (G12D), 0.0863 µM; at KRAS G12D, 0.00085 µM; on KRAS G12V, 0.00102 µM.
As for `C#Cc1c(F)ccc2cc(O)cc(-c3nc4c5c(nc(OC[C@@]67CCCN6C[C@H](F)C7)nc5c3F)N3CCCC(O4)C3CO)c12` (stereo partly drawn) [Example 104], the IC50 in the assay on GP2D (KRAS G12D) stood at 0.189 µM; in the assay with SW620 (KRAS G12V) it was 0.903 µM; with AGS (G12D), 0.665 µM; at KRAS G12D, 0.00751 µM; on KRAS G12V, 0.00901 µM.
On to `C#Cc1c(F)ccc2cc(O)cc(-c3nc4c5c(nc(OC[C@@]67CCCN6C[C@H](F)C7)nc5c3F)N3CC=CC[C@H]3CO4)c12` [Example 106, 5-ethynyl-6-fluoro-4-[(7S)-13-fluoro-16-[[(2R,8S)-2-fluoro-1,2,3,5,6,7-hexahydropyrrolizin-8-yl]methoxy]-9-oxa-2,11,15,17-tetrazatetracyclo [8.7.1.0^2,7.0^14,18]octadeca-1 (17),4,10 (18),11,13,15-hexaen-12-yl]naphthalen-2-ol], for which the IC50 was 0.0146 µM in the assay on GP2D (KRAS G12D); 0.0645 µM in the assay on SW620 (KRAS G12V); 0.0488 µM in the assay with AGS (G12D); 0.00326 µM at KRAS G12D; 0.00383 µM at KRAS G12V.

The IC50 is the midpoint of a concentration-inhibition curve.

For the origin of these results see patent US20260008787A1, “FUSED RING KRAS INHIBITORS FOR TREATING DISEASE” (BLOSSOMHILL THERAPEUTICS, INC., priority 2022, published 2026).
